Results as given in PMC11584639 (Nature Communications, 2024).

Molecular target: Bruton's tyrosine kinase (BTK) (Mus musculus, UniProt P35991)
Format: cell-based

Sequence of Bruton's tyrosine kinase (BTK) (P35991 2-659): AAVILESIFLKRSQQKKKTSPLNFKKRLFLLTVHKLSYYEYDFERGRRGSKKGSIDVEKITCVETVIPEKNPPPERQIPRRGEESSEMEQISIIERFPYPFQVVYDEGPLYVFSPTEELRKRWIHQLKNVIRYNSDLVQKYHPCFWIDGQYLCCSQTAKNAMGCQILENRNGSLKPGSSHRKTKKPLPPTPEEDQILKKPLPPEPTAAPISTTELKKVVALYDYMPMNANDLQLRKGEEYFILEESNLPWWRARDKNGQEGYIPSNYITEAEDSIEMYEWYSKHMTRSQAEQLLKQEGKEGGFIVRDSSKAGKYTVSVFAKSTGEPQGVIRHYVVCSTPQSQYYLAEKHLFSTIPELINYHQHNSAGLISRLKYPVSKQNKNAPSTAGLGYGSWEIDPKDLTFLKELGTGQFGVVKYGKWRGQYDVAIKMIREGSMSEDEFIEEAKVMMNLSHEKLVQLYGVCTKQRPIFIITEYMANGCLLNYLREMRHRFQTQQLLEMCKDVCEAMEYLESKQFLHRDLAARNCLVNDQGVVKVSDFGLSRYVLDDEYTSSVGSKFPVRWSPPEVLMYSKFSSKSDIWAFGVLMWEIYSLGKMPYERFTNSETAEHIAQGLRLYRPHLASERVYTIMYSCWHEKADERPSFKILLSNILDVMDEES

Question: How did the “pBTK-to-BTK ratio by Western blot in primary mouse microglia with or without com” value turn out when `C=CC(=O)N1CCC[C@@H](n2c(=O)n(-c3ccc(Oc4ccccc4)cc3)c3c(N)nccc32)C1` [tolebrutinib] was run?
Answer: This stimulus increased BTK phosphorylation, which was blocked by tolebrutinib
